Data from patent US6436395B1, “Rosellinia subiculata ATCC 74386 and fungus ATCC 74387 for producing sordarin compounds for fungi control” (Merck & Co., Inc., priority 1996, dated 2002).

Assays:
Assay type in all cases: in vivo
Puccinia recondita [1] = assay: Action against Puccinia recondita on wheat, protectant foliar spray (test a); details: wheat plants, 200 ppm spray 2 hours before infection (protectant), evaluated after 1 day + 7 days
Method: 2. Action against Puccinia recondita on wheat a) After 1 weeks cultivation, wheat plants sprayed to run off with a spray mixture (200 ppm active ingredient/20% acetone/0.25% Triton […]). After 2 hours, the treated plants are infected with a spore. Fungal attack is evaluated after incubation for 1 day at 95-100% relative humidity at 20° C. followed by 7 days at 25° C. at 50% relative humidity to determine the protection given by the compound.

Puccinia recondita [2] = assay: Action against Puccinia recondita on wheat, curative soil drench, systemic (test c); details: wheat plants, 200 ppm soil drench 24 hours after infection (systemic), evaluated after 1 day + 7 days
Method: 2. Action against Puccinia recondita on wheat c). After 1 weeks cultivation, wheat plants are infected with a spore suspension After 24 hours, the soil in which the wheat plants are growing was drenched with the drench mixture (200 ppm active ingredient/20% acetone/0.25% Triton […]). Fungal attack is evaluated after incubation for 1 day at 95-100% relative humidity at 20° C. followed by 7 days at 25° C. at 50% relative humidity to determine the degree of curative activity provided by the compound.

Erysiphe graminis [3] = assay: Action against Erysiphe graminis on wheat, protectant foliar spray (test a); details: wheat plants, 200 ppm spray 2 hours before infection (protectant), evaluated after 8 days
Method: 1. Action against Erysiphe graminis on wheat. a) After 1 week cultivation, wheat plants are sprayed to run off with a spray mixture (200 ppm active ingredient/20% acetone/0.25% Triton […]). After 2 hours, the treated plants are infected with ascospores shaken from inoculum plants. Fungal attack is evaluated after incubation for 8 days at 22° C. at 50% relative humidity to determine the protection given by the compound.

Erysiphe graminis [4] = assay: Action against Erysiphe graminis on wheat, curative foliar spray (test b); details: wheat plants, 200 ppm spray 24 hours after infection (curative), evaluated after 8 days
Method: 1. Action against Erysiphe graminis on wheat. b) After 1 weeks cultivation, wheat plants are infected with ascospores shaken from inoculum plants. After 24 hours, the wheat plants are sprayed with a spray mixture (200 ppm active ingredient/ 20% acetone/0.25% Triton […]). Fungal attack is evaluated after incubation for 8 days at 22° C. at 50% relative humidity to determine the degree of curative activity provided by the compound.

Puccinia recondita [5] = assay: Action against Puccinia recondita on wheat, curative foliar spray (test b); details: wheat plants, 200 ppm spray 24 hours after infection (curative), evaluated after 1 day + 7 days
Method: 2. Action against Puccinia recondita on wheat b) After 1 weeks cultivation, wheat plants are infected with a spore suspension After 24 hours, the infected plants are sprayed to run off with a spray mixture (200 ppm active ingredient/20% acetone/0.25% Triton […]. Fungal attack is evaluated after incubation for 1 day at 95-100% relative humidity at 20° C. followed by 7 days at 25° C. at 50% relative humidity to determine the degree of curative activity provided by the compound.

Erysiphe graminis [6] = assay: Action against Erysiphe graminis on wheat, curative soil drench, systemic (test c); details: wheat plants, 200 ppm soil drench 24 hours after infection (systemic), evaluated after 8 days
Method: 1. Action against Erysiphe graminis on wheat. c) After 1 weeks cultivation, wheat plants are infected with ascospores shaken from inoculum plants. After 24 hours, the soil in which the wheat plants are growing is drenched with the drench mixture (200 ppm active ingredient/20% acetone/0.25% Triton […]). Fungal attack is evaluated after incubation for 8 days at 22° C. at 50% relative humidity to determine the degree of curative activity provided by the compound.

Measured: control of fungal infection

CO[C@H]1[C@@H](O)[C@H](O)[C@H](OC[C@@]23C[C@@H]4[C@H](C)CC[C@H]4[C@@]4(C=O)CC2C=C(C(C)C)[C@@]34C(=O)O)O[C@@H]1C [sordarin, Sordarin]
100%: all assays above
